Species: Homo sapiens
Assay: In vitro collagen induced platelet aggregation inhibitory activity using human platelet rich plasma anti-coagulated with 0.38% trisodium citrate
Format: functional

Structure (SMILES)	IC50 (Homo sapiens, Plasma)	IC50
CCC(C(=O)N1CCC(CC(=O)O)CC1)C(NC(=O)c1ccc(C(=N)N)cc1)c1ccccc1 (stereo not drawn)	16 µM	–
C[C@@H](CC(=O)N1CCC(CC(=O)O)CC1)NC(=O)c1ccc(C(=N)N)cc1	5 µM	–
C[C@H](NC(=O)c1ccc(C(=N)N)cc1)C(=O)N1CCC(CC(=O)O)CC1	30 µM	–
N=C(N)Nc1ccc(C(=O)NCCC(=O)N2CCC(C(=O)O)CC2)cc1	750 µM	–
N=C(N)c1ccc(C(=O)N[C@@H](CC(=O)N2CCC(CC(=O)O)CC2)C(=O)Oc2ccccc2)cc1	4.1 µM	–
CN(CC(=O)N1CCC(CC(=O)O)CC1)C(=O)c1ccc(CN=C(N)N)cc1	> 1000 µM	–
CC(C)[C@@H](CC(=O)N1CCC(CC(=O)O)CC1)NC(=O)c1ccc(C(=N)N)cc1	9.2 µM	–
N=C(N)c1ccc(C(=O)N[C@H](CC(=O)N2CCC(CC(=O)O)CC2)c2ccccc2)cc1	5.2 µM	–
C[C@H](NC(=O)c1ccc(NC(=N)N)cc1)C(=O)N1CCC(C(=O)O)CC1	> 1000 µM	–
CCCCC(CNC(=O)c1ccc(C(=N)N)cc1)C(=O)N1CCC(CC(=O)O)CC1 (stereo not drawn)	3.8 µM	–
N=C(N)c1ccc(C(=O)N[C@@H](CC(=O)N2CCC(CC(=O)O)CC2)C(=O)OC2CCCCC2)cc1	1.9 µM	–
CN(CC(=O)N1CCC(CC(=O)O)CC1)C(=O)c1ccc(C(=N)N)cc1	7.5 µM	–
N=C(N)NCc1ccc(C(=O)NCCC(=O)N2CCC(C(=O)O)CC2)cc1	> 1000 µM	–
N=C(N)c1ccc(C(=O)N2CCCC(C(=O)N3CCC(CC(=O)O)CC3)C2)cc1 (stereo not drawn)	25 µM	–
CC(C)C(CNC(=O)c1ccc(C(=N)N)cc1)C(=O)N1CCC(CC(=O)O)CC1 (stereo not drawn)	25 µM	–
N=C(N)c1ccc(C(=O)NCC(Cc2ccccc2)C(=O)N2CCC(CC(=O)O)CC2)cc1 (stereo not drawn)	4.1 µM	–
CC(C)C(C(=O)N1CCC(CC(=O)O)CC1)C(NC(=O)c1ccc(C(=N)N)cc1)c1ccccc1 (stereo not drawn)	82 µM	–

Structure (SMILES)	IC50 (Homo sapiens, Plasma)	IC50
CC(CNC(=O)c1ccc(C(=N)N)cc1)C(=O)N1CCC(CC(=O)O)CC1 (stereo not drawn)	0.59 µM	–
C[C@H](NC(=O)c1ccc(CN=C(N)N)cc1)C(=O)N1CCC(C(=O)O)CC1	710 µM	–
CN(CCC(=O)N1CCC(CC(=O)O)CC1)C(=O)c1ccc(C(=N)N)cc1	6.5 µM	–
N=C(N)c1ccc(C(=O)NCCC(=O)N2CCC(OCC(=O)O)CC2)cc1	18 µM	–
C[C@H](NC(=O)c1ccc(C(=N)N)cc1)C(=O)N1CCC(C(=O)O)CC1	110 µM	–
CN(CC(=O)N1CCC(C(=O)O)CC1)C(=O)c1ccc(CN=C(N)N)cc1	53 µM	–
N=C(N)c1ccc(C(=O)NCCC(=O)N2CCC(C(=O)O)CC2)cc1	33 µM	–
N=C(N)c1ccc(C(=O)NCC(Cc2ccc(O)cc2)C(=O)N2CCC(CC(=O)O)CC2)cc1 (stereo not drawn)	0.94 µM	–
N=C(N)c1ccc(C(=O)N2CCCC2CC(=O)N2CCC(CC(=O)O)CC2)cc1 (stereo not drawn)	4.3 µM	–
CC(C)(CNC(=O)c1ccc(C(=N)N)cc1)C(=O)N1CCC(CC(=O)O)CC1	0.57 µM	–
CN(CC(=O)N1CCC(C(=O)O)CC1)C(=O)c1ccc(C(=N)N)cc1	330 µM	–
CN(CC(=O)N1CCC(C(=O)O)CC1)C(=O)c1ccc(NC(=N)N)cc1	100 µM	–
CN(CC(=O)N1CCC(CC(=O)O)CC1)C(=O)c1ccc(NC(=N)N)cc1	750 µM	–
CC(C)(C(=O)N1CCC(CC(=O)O)CC1)C(NC(=O)c1ccc(C(=N)N)cc1)c1ccccc1 (single isomer, unassigned; (+))	–	0.092 µM
CC(C)(C(=O)N1CCC(CC(=O)O)CC1)C(NC(=O)c1ccc(C(=N)N)cc1)c1ccccc1 (single isomer, unassigned; (-))	–	31 µM
CC(C)(C(=O)N1CCC(CC(=O)O)CC1)C(NC(=O)c1ccc(C(=N)N)cc1)c1ccccc1 (stereo in doubt; 18)	–	0.19 µM
